Like-named read-outs stand apart in the source and are kept apart here.
Molecular target: T1, hT1R1/hT1R3 umami receptor (Homo sapiens, UniProt Q7RTX0+Q7RTX1)
T1 construct: expressed in transfected cells; host or cells: HEK293 derivative stably expressing Gα15, clone I-17, expression induced with mifepristone
T1 sequence (Q7RTX1 21-841): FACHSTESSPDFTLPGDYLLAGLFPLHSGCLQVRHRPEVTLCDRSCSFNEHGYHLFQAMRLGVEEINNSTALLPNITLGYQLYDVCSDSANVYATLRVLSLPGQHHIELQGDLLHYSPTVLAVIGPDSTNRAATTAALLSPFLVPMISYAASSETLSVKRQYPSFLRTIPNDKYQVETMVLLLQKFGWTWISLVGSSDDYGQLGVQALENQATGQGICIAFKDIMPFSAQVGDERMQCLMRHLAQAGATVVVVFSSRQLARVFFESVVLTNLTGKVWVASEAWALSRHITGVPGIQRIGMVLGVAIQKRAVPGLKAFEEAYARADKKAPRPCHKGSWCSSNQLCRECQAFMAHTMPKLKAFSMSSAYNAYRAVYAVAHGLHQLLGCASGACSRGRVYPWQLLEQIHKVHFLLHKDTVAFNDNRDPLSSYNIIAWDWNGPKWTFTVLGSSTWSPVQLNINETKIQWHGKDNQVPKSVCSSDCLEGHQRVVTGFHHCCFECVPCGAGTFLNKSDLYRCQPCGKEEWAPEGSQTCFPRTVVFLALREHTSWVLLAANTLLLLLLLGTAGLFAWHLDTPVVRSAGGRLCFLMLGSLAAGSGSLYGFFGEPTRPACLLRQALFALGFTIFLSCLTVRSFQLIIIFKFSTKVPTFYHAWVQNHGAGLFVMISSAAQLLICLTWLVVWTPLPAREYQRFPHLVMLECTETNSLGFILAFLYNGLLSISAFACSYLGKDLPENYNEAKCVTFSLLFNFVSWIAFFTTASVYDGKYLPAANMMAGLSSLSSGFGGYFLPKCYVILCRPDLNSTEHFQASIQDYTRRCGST
T1 sequence (Q7RTX0 21-852): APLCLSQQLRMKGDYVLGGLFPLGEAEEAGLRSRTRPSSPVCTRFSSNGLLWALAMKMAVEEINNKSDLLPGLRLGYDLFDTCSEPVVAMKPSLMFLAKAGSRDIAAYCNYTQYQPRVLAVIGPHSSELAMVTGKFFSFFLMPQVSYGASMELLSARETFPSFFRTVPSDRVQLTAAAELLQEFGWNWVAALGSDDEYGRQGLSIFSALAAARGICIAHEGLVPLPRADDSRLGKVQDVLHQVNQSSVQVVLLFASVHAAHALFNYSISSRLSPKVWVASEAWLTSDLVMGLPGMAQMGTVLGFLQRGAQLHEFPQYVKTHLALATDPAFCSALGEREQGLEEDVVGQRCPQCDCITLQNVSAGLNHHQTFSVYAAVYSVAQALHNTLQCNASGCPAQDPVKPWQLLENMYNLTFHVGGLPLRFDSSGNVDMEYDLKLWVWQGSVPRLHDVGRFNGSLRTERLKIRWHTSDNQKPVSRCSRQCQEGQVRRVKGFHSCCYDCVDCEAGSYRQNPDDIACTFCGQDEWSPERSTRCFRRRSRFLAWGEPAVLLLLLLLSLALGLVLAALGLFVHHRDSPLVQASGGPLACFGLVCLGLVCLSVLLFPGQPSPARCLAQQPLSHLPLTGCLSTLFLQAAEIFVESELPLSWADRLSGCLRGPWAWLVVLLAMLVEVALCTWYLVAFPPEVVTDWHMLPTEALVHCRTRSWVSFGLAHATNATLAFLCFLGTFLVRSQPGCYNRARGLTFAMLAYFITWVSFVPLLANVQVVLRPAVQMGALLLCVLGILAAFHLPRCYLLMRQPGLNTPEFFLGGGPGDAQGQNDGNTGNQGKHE
Experiment: In vitro hT1R1/hT1R3 umami taste receptor activation assay (FLIPR, dose response)
Format: cell-based
Conditions: read-out: Umami EC50

| SMILES | EC50 (Table A, Umami Amides) | EC50 (Table B, Umami Oxalamides) |
| --- | --- | --- |
| COC[C@H](NC(=O)c1ccc(OC)c(C)c1)c1ccccc1 [Example A94, (R)-4-methoxy-N-(2-methoxy-1-phenylethyl)-3-methylbenzamide] | 0.72 µM | – |
| CCC(NC(=O)c1ccc(OC)c(C)c1)c1ccc(OC)cc1 (centres unmarked) [Example A96, 4-methoxy-N-(1-(4-methoxyphenyl)propyl)-3-methylbenzamide] | 0.76 µM | – |
| CCCC(COC)NC(=O)c1ccc(OC)c(C)c1 (centres unmarked) [Example A97, 4-methoxy-N-(1-methoxypentan-2-yl)-3-methylbenzamide] | 0.85 µM | – |
| CCCC(CCC)NC(=O)c1ccc(OC)cc1O [Example A101, N-(heptan-4-yl)-2-hydroxy-4-methoxybenzamide] | 1.16 µM | – |
| Cc1cc(C(=O)NC2CCCc3ccccc32)ccc1O (centres unmarked) [Example A102, 4-hydroxy-3-methyl-N-(1,2,3,4-tetrahydronaphthalen-1-yl)benzamide] | 1.32 µM | – |
| COc1ccc(CNC(=O)c2ccccc2-c2ccccc2)c(OC)c1 [Example A104, Biphenyl-2-carboxylic acid 2,4-dimethoxy-benzylamide] | 1.37 µM | – |
| COc1ccc(C(=O)NC2CCc3ccccc32)cc1Cl (centres unmarked) [Example A106, 3-chloro-N-(2,3-dihydro-1H-inden-1-yl)-4-methoxybenzamide] | 1.39 µM | – |
| COc1cccc(C(=O)N[C@@H]2CCCc3ccccc32)c1N [Example A108, (R)-2-amino-3-methoxy-N-(1,2,3,4-tetrahydronaplithalen-1-yl)benzamide] | 0.09 µM | – |
| Cc1cc(C(=O)N[C@H]2CCc3ccccc32)ccc1O [Example A111, (S)-N-(2,3-dihydro-1H-inden-1-yl)-4-hydroxy-3-methylbenzamide] | 0.66 µM | – |
| Cc1ccc(C(=O)N[C@H]2CCc3ccccc32)cc1C [Example A112, (S)-N-(2,3-dihydro-1H-inden-1-yl) 3,4-dimethylbenzamide] | 0.79 µM | – |
| O=C(N[C@H]1CCOc2ccccc21)c1cccc(Cl)c1O [Example A115, (s)-3-chloro-N-(chroman-4-yl)-2-hydroxybenzamide] | 5 µM | – |
| CCCC(CCC)NC(=O)c1cccc(CC)c1 [Example A116, 3-ethyl-N-(heptan-4-yl)benzamide] | 0.01 µM | – |
| CCCC(CCC)NC(=O)c1cccc(SC)c1 [Example A118, N-(heptan-4-yl)-3-(methylthio)benzamide] | 0.03 µM | – |
| CCCC(CCC)NC(=O)c1cc(OC)nc(OC)n1 [Example A122, N-(heptan-4-yl)-2,6-dimethoxypyrimidine-4-carboxamide] | 0.22 µM | – |
| CCCC(CCC)NC(=O)c1coc2ccccc12 [Example A123, N-(heptan-4-yl)benzofuran-3-carboxamide] | 0.51 µM | – |
| COc1cccc(C(=O)NC2CCCCC2C)c1N (centres unmarked) [Example A125, 2-amino-3-methoxy-N-(2-methylcyclohexyl)benzamide] | 0.02 µM | – |
| CCCC(CCC)NC(=O)c1cc2cccc(OC)c2o1 [Example A130, N-(heptan-4-yl)-7-methoxybenzofuran-2-carboxamide] | 0.16 µM | – |
| COc1ccc(CNC(=O)C(=O)NCCc2ccco2)c(OC)c1 [Example B1, N1-(2,4-dimethoxybenzyi)-N2-(2-(furan-2-yl)ethyl)oxalamide] | – | 0.18 µM |
| CCOc1ccc(CNC(=O)C(=O)NCCc2ccc(C)cn2)c(OC)c1 [Example B2, N1-(4-ethoxy-2-methoxybenzyl)-N2-(2-(5-methylpyndm-2-yl)ethyl)oxalamide] | – | 0.19 µM |
| CC(C)Oc1ccccc1CNC(=O)C(=O)NCCc1ccccn1 [Example B4, N1-(2-isopropoxybenzyl)-N2-(2-(pyridin-2-yl)ethyl)oxalamide] | – | 1.22 µM |

Results, then the compound that gave them:

| EC50 (Table A, Umami Amides) | EC50 (Table B, Umami Oxalamides) | SMILES |
| --- | --- | --- |
| 0.74 µM | – | COC(=O)[C@@H](CC(C)C)NC(=O)c1cc(C)c(OC)c(C)c1 [Example A95, (R)-methyl 2-(4-methoxy-3,5-dimethylbenzamido)-4-methylpentanoate] |
| 0.88 µM | – | COc1ccc(C(=O)NC(CO)CC(C)C)cc1Cl (centres unmarked) [Example A98, 3-chloro-N-(1-hydroxy-4-methylpentan-2-yl)-4-methoxybenzamide] |
| 0.89 µM | – | COC(=O)[C@@H](CC(C)C)NC(=O)c1cccc(C)c1 [Example A99, (R)-methyl 4-methyl-2-(3-methylbenzamido)pentanoate] |
| 1.1 µM | – | COc1ccc(C(=O)NC(C)c2ccc(C)cc2)cc1Cl (centres unmarked) [Example A100, 3-chloro-4-methoxy-N-(1-p-tolylethyl)benzamide] |
| 1.36 µM | – | CCOC(=O)[C@H]1CCCC[C@H]1NC(=O)c1ccc(OC)c(Cl)c1 [Example A103, (1S,2R)-ethyl 2-(3-chloro-4-methoxybenzamido)cyclohexanecarboxylate] |
| 1.38 µM | – | C=Cc1ccc(C(=O)N[C@H]2CCCc3ccccc32)cc1 [Example A105, (S)-N-(1,2,3,4-tetrahydronaphthalen-1-yl)-4-vinylbenzamide] |
| 0.07 µM | – | COc1ccc2c(c1)CCCC2NC(=O)c1cccc(OC)c1N (centres unmarked) [Example A107, 2-amino-3-methoxy-N-(6-methoxy-1,2,3,4-tetrahydronaphthalen-1-yl)benzamide] |
| 0.08 µM | – | COc1ccc(C(=O)N[C@H]2CCCc3ccccc32)cc1C [Example A109, (S)-4-methoxy-3-methyl-N-(1,2,3,4-tetrahydronaphthalen-1-yl)benzamide] |
| 0.3 µM | – | COc1ccc2c(c1)CCC2NC(=O)c1ccc(O)c(C)c1 (centres unmarked) [Example A110, 4-hydroxy-N-(5-methoxy-2,3-dihydro-1H-inden-1-yl)-3-methylbenzamide] |
| 0.85 µM | – | CCOc1ccc(C(=O)N[C@H]2CCc3ccccc32)cc1C [Example A113, (S)-N-(2,3-dihydro-1H-inden-1-yl)-4-ethoxy-3-methylbenzamide] |
| 2.35 µM | – | COc1cc(C(=O)N[C@@H]2CCCc3ccccc32)nc(OC)n1 [Example A114, (R)-2,6-dimethoxy-N-(1,2,3,4-tetrahydronaphthalen-1-yl)pyrimidine 4-carboxamide] |
| 0.03 µM | – | CCCC(CCC)NC(=O)c1cc(COC)c(CC)o1 [Example A117, 5-ethyl-N-(heptan-4-yl)-4-(methoxymethyl)furan-2-carboxamide] |
| 0.05 µM | – | CCCC(CCC)NC(=O)c1ccc2c(c1)NCCC2 [Example A119, N-(heptan-4-yl)-1,2,3,4-tetrahydroguinoline-7-carboxamide] |
| 0.08 µM | – | CCCC(CCC)NC(=O)c1ccc(OC)c([N+](=O)[O-])c1 [Example A120, N-(heptan-4-yl)-4-methoxy-3-nitrobenzamide] |
| 0.15 µM | – | CCCC(CCC)NC(=O)c1cc2c(s1)CCC2 [Example A121, N-(heptan-4-yl)-5,6-dihydro-4H-cyclopenta[b]thiophene-2-carboxamide] |
| 0.01 µM | – | Cc1ccc(C(=O)NC2CCCCC2C)cc1C (centres unmarked) [Example A124, 3,4-dimethyl-N-(2-methylcyclohexyl)benzamide] |
| 0.04 µM | – | COc1ccc2c(c1)CCC2NC(=O)c1cccc(OC)c1N (centres unmarked) [Example A126, 2-amino-3-methoxy-N-(5-methoxy-2,3-dihydro-1H-inden-1-yl)benzamide] |
| 0.14 µM | – | CCCC(CCC)NC(=O)c1cccc(C)c1N [Example A127, 2-amino-N-(heptan-4-yl)-3-methylbenzamide] |
| 0.4 µM | – | CCCC(CCC)NC(=O)c1ccc(-c2cnco2)cc1 [Example A128, N-(heptan-4-yl)-4-(oxazol-5-yl)benzamide] |
| 1.03 µM | – | COc1ccc(C(=O)NC2CCc3cccc(C)c32)cc1C (centres unmarked) [Example A129, 4-methoxy-3-methyl-N-(7-methyl-2,3-dihydro-1H-inden-1-yl)benzamide] |
| – | 0.81 µM | Cc1c(CNC(=O)C(=O)NCCc2ccccn2)sc2ccccc12 [Example B3] |
